Reference: patent US9932300B2, “N,N′-diarylurea compounds and N,N′-diarylthiourea compounds as inhibitors of translation initiation” (President and Fellows of Harvard College, priority 2009, dated 2018)
“Also recorded” adds a separate entry of the source. One block for each compound: values may come before it.

Assays:
[1] = system: PC-3 human prostate cancer cells; test: Cell proliferation, SRB assay, PC-3; assay type: cell-based; conditions: read-out: IC50 (concentration that inhibits cell proliferation by 50%)
Description: Reduced availability of the ternary complex causes inhibition of translation initiation and thereby of cell proliferation. […] The effects of N,N′-diarlyureas on the proliferation KLN mouse squamous cell carcinoma, CRL-2351 human breast, CRL-2813 human melanoma, A549 human lung and PC-3 human prostate cancer cell lines were tested.
To determine if N,N′-diarylureas inhibit cell proliferation by reducing the availability of the ternary complex, the effect of N,N′-diarylureas on proliferation of previously described transgenic PC-3 human prostate cancer cell lines expressing either the non-phosphorylatable eIF2α-S51A mutant or the eIF2α-WT was studied. […] Reducing the expression of HRI, the eIF2α kinase that mediates N,N′-diarlyurea induced phosphorylation of eIF2α similarly abrogates the effect of these agents on cell proliferation (FIGS. 15C and 15D).
Cell Growth Assay: Cell growth was measured by the SRB assay.

[2] = system: eIF2-GTP-Met-tRNAi ternary complex; test: Ternary complex assay (dual luciferase, firefly/renilla ratio) in stable KLN-tTA/pBISA-DL(ATF-4) cells; HTS and hit confirmation; assay type: cell-based, mouse; conditions: designation in figure legend
HRI = test: Activation of HRI in cell-free lysates (phosphorylation of eIF2α, Western blot); assay type: biochemical, rabbit and human; conditions: lysates of CRL-2813 cells or heme-supplemented rabbit reticulocytes, 30 minutes at 37° C.
Description: FIGS. 14A and 14B depict that N,N′-diarylurea compounds activate HRI in cell free lysates. A and B) Heme supplemented rabbit reticulocyte (a) or in-house prepared human melanoma cancer cell lysates (b) were incubated with the indicated concentration of compound 1781 for 30 minutes at 37° C. and phosphorylation of eIF2α was determined by Western blot analysis.
Compound #1781 was added to lysates of CRL-2813 cells or heme-supplemented rabbit reticulocytes and phosphorylation of eIF2α by Western blot was determined.

CHOP = test: Expression of endogenous CHOP mRNA (real time PCR) and CHOP protein (Western blot); assay type: cell-based, mouse and human; conditions: siRNA against HRI
Description: (§1) For example, reducing amount of the ternary complex increases translation of ATF-4, which results in elevated expression of CHOP mRNA and protein. Therefore, expression of endogenous CHOP mRNA and CHOP protein in KLN-tTA/pBISA-DL^(ATF-4) cells were utilized as secondary assays to validate N,N′-diarylurea compounds as modifiers of the eIF2⋅GTP⋅Met-tRNAi ternary complex. […] To rule out the possibility that the activity of N,N′-diarylurea compounds was confined to a single cell type, the effects of these compounds on the ternary complex assay and the expression of CHOP mRNA was assayed in CRL-2351, PC-3, CRL-2813 human breast, prostate, and melanoma cancer cell lines respectively. For the reporter gene assay, the three human cell lines were co-transfected with tTA expression vector and the pBISA-DL^(ATF-4) dual luciferase expression vector shown in FIG. 6. […] The expression of CHOP mRNA was assayed by real time PCR in the same cell lines treated with 5 or 20 μM of each compound. […]
Real time PCR: For real time PCR, total RNA was extracted with TaqMan Gene Expression Cells-to-Ct™ Kit (Applied Biosystems, Branchburg, N.J.) according to manufacturer's protocol. […] To calibrate the results, all the transcripts quantities were normalized to 18S rRNA (was 18S ribosomal RNA-like mRNA in mouse). […]

[3] = system: eIF2-GTP-Met-tRNAi ternary complex; test: Ternary complex assay (dual luciferase, firefly/renilla ratio) in stable KLN-tTA/pBISA-DL(ATF-4) cells; HTS and hit confirmation; assay type: cell-based, mouse; conditions: for Induction of F-luc/R-luc ratio after knockdown of HRI: siRNA against HRI
[4] = In vivo toxicity in female nude mice (body weight, food consumption, necropsy)
Description: Five female nude mice each were treated with 200 mg/kg, 100 mg/kg #1781 in 15 μl DMSO or 15 μl DMSO daily for seven days. Mice were observed daily for signs of toxicity and weighed every other day for total of 15 days and then necropsy was performed. The average body of each group is plotted against the time.
To study toxicity effects, mice were treated with various doses of compound #1781 or vehicle.

[5] = Solubility in solvents during purification; assay type: physicochemical; conditions: crude product
Description: Because it could not be purified, this compound was removed from the structure-activity relationship (SAR) study.
As another non-limiting example, 3,4-dichlorophenylisocyanate (250 mg, 1.330 mmol) and 2-amino-4-hydroxy-6-methylpyrimidine (166 mg, 1.330 mmol) were used following the general procedure E to synthesize 28.

[6] = system: eIF2-GTP-Met-tRNAi ternary complex; test: Ternary complex / ATF-4 dual luciferase assay in human cancer cell lines co-transfected with tTA and pBISA-DL(ATF-4) (CRL-2351, PC-3, CRL-2813); assay type: cell-based; conditions: CRL-2351 cell line
Description: FIGS. 8A-8D depict that N,N′-diarylureas reduce the availability of the eIF2-GTP-Met-tRNAi ternary complex in human cancer cells. A-C) PC-3, CR-L2351, and CRL-2813 human cancer cell lines were co-transfected with pBISA-DL^(ATF-4) and ptTA plasmids. One day post-transfection, the cells were treated with the indicated concentrations of N,N′-diarylureas. Firefly/renilla ratio was determined by DLR assay 8 hours after treatment. D) PC-3, CR-L2351, and CRL-2813 human cancer cell lines were treated with the indicated concentrations of N,N′-diarylureas four 8 hours, and expression of endogenous CHOP mRNA was determined by real-time PCR.
as §1
Stable and transient transfection: Cells were seeded at the density of 10^5 in 60-mm (stable transfection) or 10^4 cells per well of 96-well plate (transient transfection) plates and transfected one day later using the Qiagen Transfectamine transfection kit. For selection of stable cell lines, transfected cells were transferred to 100-mm plates and selected with appropriate antibiotics.
Dual luciferase assay: Cells or minced tumors expressing firefly and renilla luciferases were lysed and the extracts assayed with a glow type dual luciferase assay kit, per manufacturer's instruction (Promega Inc., Madison, Wis.).

IC50 [1]: 8.3 µM
Structure (SMILES): O=C(Nc1ccc(Cl)c(Cl)c1)Nc1cc([N+](=O)[O-])ccc1Cl [Compound 1527]
Active or inactive N,N′-diarylurea (ternary complex assay) [2]: inactive

Structure (SMILES): O=C(Nc1ccc(Cl)c(Cl)c1)Nc1ccc2nnsc2c1 [Compound 1781]
Phosphorylation of eIF2α in cell lysates (HRI): caused phosphorylation of eIF2α in cell lysates in a dose dependent manner
Induction of CHOP mRNA after knockdown of HRI (CHOP): abrogated induction of CHOP mRNA
Induction of F-luc/R-luc ratio after knockdown of HRI [3]: significantly abrogated
Induction of F-luc/R-luc ratio after knockdown of HRI ([3]; listed as 1181): almost completely abrogated
Induction of F-luc/R-luc ratio after knockdown of PKR, PERK or GCN2 ([3]; siRNA against PKR, PERK, GCN2, individually or combined): no effect
Apparent in vivo toxicity ([4]; 200 mg/kg or 100 mg/kg daily for seven days, female nude mice, observed 15 days): no apparent in vivo toxicity
Effect on weight gain or food consumption ([4]; seven consecutive day administration, up to 200 mg/kg, mice): no adverse effect on weight gain or food consumption

Structure (SMILES): O=C(Nc1cc(C(F)(F)F)cc(C(F)(F)F)c1)Nc1ncccc1O [Compound 28]
Solubility in solvents [5]: not soluble in any solvent; also recorded: wasn't soluble in any solvent tested
ATF-4 Cmax (concentration corresponding to the maximal activity) [6]: 40 µM
